Data as given in patent publication US8637563B2, “Non-peptide thrombopoietin receptor agonist in the treatment of cancer and pre-cancerous syndromes” (GlaxoSmithKline LLC, priority 2007, dated 2014).
Converted amounts (≈) assume the structure as drawn.

Columns and labels:
Assay type in all cases: cell-based
[1] = tested on: Akt (Ser473) activation in washed human platelets; experiment: Activation of Akt in human platelets; conditions: TPO 100 ng/mL; for Akt activation (phosphorylation), agent alone: 15 minutes alone, Compound A (SB) 10 mM, phosphorylation-specific antibodies, Blot 1
Procedure: Washed human platelets from healthy volunteers were treated with vehicle (V) [0.33% DMSO], 100 ng/mL TPO [recombinant human thrombopoietin obtained from R&D Systems, Inc., Minneapolis, Minn., USA, or SB (SB=Compound A in Blot 1) (10 mM) for 15 minutes alone, or 13 minutes alone followed by 2 minutes with 1 mM ADP (+ADP). Protein extracts were probed for Akt (Ser473) activation. Results are representative of 3 individual experiments.
Compound A was compared to TPO in human platelets through the examination of a signal transduction pathway known to be activated through TPOR [TPO receptor] stimulation; specifically, Pi3K/Akt pathway activation [Chen, J., et al., Blood, 86, 4054-4062 (1995); Kojima, H., et al., Thrombosis & Haemostassis, 74, 1541-1545 (1995); Ezumi, Y., et al., FEBS Letters, 374, 48-52 (1995)].

[2] = tested on: EKVX (NSCLC); experiment: Solid Tumor Cell Line Proliferation Assay, EKVX; conditions: Homo sapiens, 72 hr, Cell Titer Glo
Procedure: (§1) Cells in log phase growth were seeded in a 96-well plate at 2500 cells/well in 50 uL medium and incubated at 37° C., 5% CO2 overnight. Compound A was diluted in medium and added at 0.1, 0.4, 1, 4, 10 and 40 ug/mL. Following a 72 hr incubation at 37° C., 5% CO2. The CellTiter-Glo Luminescent Cell Viability Assay (ProMega Corp) was performed according to the manufacturer's instructions. Briefly following a 30 min room temperature incubation 100 uL CELLTiter Glo reagent was added to each well and mixed for 2 minutes. Luminescence was recorded following a 10 minute room temperature incubation using a PerkinElmer Microbeta luminescence counter. IC50 was determined by EXCel Fit 4.2.1.

[3] = tested on: A549 (NSCLC); experiment: Solid Tumor Cell Line Proliferation Assay, A549; conditions: Homo sapiens; A549, 72 hr, Cell Titer Glo
Procedure: as §1

[4] = tested on: K562 Chronic Myelogenous leukemia cells; experiment: Cancer Proliferation Assay (3H-thymidine uptake), K562; conditions: Homo sapiens; K562, 3 days, 3H-TdR uptake
Procedure: (§2) Flat-bottom 96-well microtiter tissue culture plates (Costar, Cambridge, Mass.) were used for the assay. Cultures were performed in replicates of 4 wells; each well contained 1×10^4 cells. Six concentrations of Compound A (ranging from 40 μg/mL to 100 ng/mL) were tested in the absence and presence of 10 ng/mL G-CSF, 100 ng/mL of TPO or 5 U/mL of EPO. Cells were also tested in medium alone, G-CSF alone, TPO alone, or EPO alone to establish 100% of control values. The final volume in each well was 200 μL. Plates were placed in a humidified 5% CO2 incubator at 37° C. for 3 days. Proliferation was measured by the uptake of tritiated thymidine (^3H-TdR) by pulsing wells with 1 μCi of ^3H-TdR for the final 18 hours of incubation, harvesting the plate on a Brandel 96-well cell harvester (Gaithersburg, Md.) and measuring radioactivity on the filter mats in a Wallac 1450 Microbeta TriLux scintillation counter (Turku, Finland). The effect of Compound A was determined by comparing the results of cells treated with test compound with control cells (100% of control).

[5] = tested on: NCI-H460 (NSCLC); experiment: Solid Tumor Cell Line Proliferation Assay, NCI-H460; conditions: Homo sapiens; NCI-H460, 72 hr, Cell Titer Glo
Procedure: as §1

[6] = tested on: MOLT-4 Acute Lymphoblastic T cell leukemia cells; experiment: Cancer Proliferation Assay (3H-thymidine uptake), MOLT-4; conditions: Homo sapiens; MOLT-4, 3 days, 3H-TdR uptake
Procedure: as §2

[7] = tested on: NCI-H322M (NSCLC); experiment: Solid Tumor Cell Line Proliferation Assay, NCI-H322M; conditions: Homo sapiens, 72 hr, Cell Titer Glo
Procedure: as §1

[8] = tested on: NCI-H23 (NSCLC); experiment: Solid Tumor Cell Line Proliferation Assay, NCI-H23; conditions: Homo sapiens; NCI-H23, 72 hr, Cell Titer Glo
Procedure: as §1

[9] = tested on: HOP-92 (NSCLC); experiment: Solid Tumor Cell Line Proliferation Assay, HOP-92; conditions: Homo sapiens; HOP-92, 72 hr, Cell Titer Glo
Procedure: as §1

[10] = tested on: NCI-H522 (NSCLC); experiment: Solid Tumor Cell Line Proliferation Assay, NCI-H522; conditions: Homo sapiens; NCI-H522, 72 hr, Cell Titer Glo
Procedure: as §1

[11] = tested on: HepG2 (Hepatocellular carcinoma); experiment: Solid Tumor Cell Line Proliferation Assay, HepG2; conditions: Homo sapiens; HepG2, 72 hr, Cell Titer Glo
Procedure: Cells in log phase growth were seeded in a 96-well plate at 2500 cells/well in 50 uL medium and incubated at 37° C., 5% CO2 overnight. […] Following a 72 hr incubation at 37° C., 5% CO2. The CellTiter-Glo Luminescent Cell Viability Assay (ProMega Corp) was performed according to the manufacturer's instructions. Briefly following a 30 min room temperature incubation 100 uL CELLTiter Glo reagent was added to each well and mixed for 2 minutes. Luminescence was recorded following a 10 minute room temperature incubation using a PerkinElmer Microbeta luminescence counter. IC50 was determined by EXCel Fit 4.2.1.

[12] = tested on: CCRF-CEM Lymphoblastic T cell leukemia cells; experiment: Cancer Proliferation Assay (3H-thymidine uptake), CCRF-CEM; conditions: Homo sapiens, 3 days, 3H-TdR uptake
Procedure: as §2

[13] = tested on: HepG2 cells; experiment: Liver Cancer Assay (CellTiter Glo); conditions: Homo sapiens, HepG2, 72 hours, n=4 wells, read-out: IC50, decrease in the number of viable cells
Procedure: HepG2 is a human hepatocellular carcinoma cell line. Active cell determinations were performed on HepG2 cells by plating 2×10^4 cells/mL in 96-well plates in culture medium containing 10% FBS and incubating overnight in 5% CO2 at 37°. Cells were then treated with Compound A at 0, 0.1, 0.4, 1, 4, 10, 40 ug/mL and incubated for 72 hours. Cell proliferation was measured using the CellTiter Glo (Promega) reagent according to the manufacturer's protocol. Data is the mean of n=4 wells reported as the percent of the control (0 ug/mL of Compound A). Compound A induced a decrease in the number of viable cells with an IC50 of approximately 6 ug/mL.

[14] = tested on: SR Immunoblastic Large Cell Leukemia cells; experiment: Cancer Proliferation Assay (3H-thymidine uptake), SR; conditions: 3 days, 3H-TdR uptake
Procedure: as §2

[15] = tested on: NCI-H226 (NSCLC); experiment: Solid Tumor Cell Line Proliferation Assay, NCI-H226; conditions: Homo sapiens; NCI-H226, 72 hr, Cell Titer Glo
Procedure: as §1

[16] = tested on: HOP-62 (NSCLC); experiment: Solid Tumor Cell Line Proliferation Assay, HOP-62; conditions: Homo sapiens; HOP-62, 72 hr, Cell Titer Glo
Procedure: as §1

[17] = tested on: RPMI-8226 Plasmacytoma cells; experiment: Cancer Proliferation Assay (3H-thymidine uptake), RPMI-8226; conditions: Homo sapiens; RPMI-8226, 3 days, 3H-TdR uptake
Procedure: as §2

Compound | Akt activation (phosphorylation), agent alone [1] | IC50 [2] [µg/mL] | IC50 [3] [µg/mL] | IC50 [4] [µg/mL] | IC50 [5] [µg/mL] | IC50 [6] [µg/mL] | IC50 [7] [µg/mL] | IC50 [8] [µg/mL] | IC50 [9] [µg/mL] | IC50 [10] [µg/mL] | IC50 [11] [µg/mL] | IC50 [12] [µg/mL] | IC50 [13] [µg/mL] | IC50 [14] [µg/mL] | IC50 [15] [µg/mL] | IC50 [16] [µg/mL] | IC50 [17] [µg/mL] | Akt activation in combination with ADP (preincubation with agent) ([1]; 13 minutes alone followed by 2 minutes with ADP, Compound A 10 mM)
Nc1ncnc2c1ncn2[C@@H]1O[C@H](COP(=O)(O)OP(=O)(O)O)[C@@H](O)[C@H]1O [ADP, reference compound] | no activation observed |  |  |  |  |  |  |  |  |  |  |  |  |  |  |  |  | 
CC1=NN(c2ccc(C)c(C)c2)C(=O)/C1=N\Nc1cccc(-c2cccc(C(=O)O)c2)c1O [Compound A, 3′-[(2Z)-[1-(3,4-dimethylphenyl)-1,5-dihydro-3-methyl-5-oxo-4H-pyrazol-4-ylidene]hydrazino]-2′-hydroxy-[1,1′-biphenyl]-3-carboxylic acid] | no activation was observed | 12.7 (≈ 28.7 µM) | 9.1 (≈ 20.6 µM) | 1.8 (≈ 4.07 µM) | 5.7 (≈ 12.9 µM) | 0.56 (≈ 1.27 µM) | 8.3 (≈ 18.8 µM) | 13.9 (≈ 31.4 µM) | 13.5 (≈ 30.5 µM) | 5.9 (≈ 13.3 µM) | 5.61 (≈ 12.7 µM) | 0.74 (≈ 1.67 µM) | ~6 (≈ 13.6 µM) | 0.77 (≈ 1.74 µM) | 11 (≈ 24.9 µM) | 10.6 (≈ 24 µM) | 5.9 (≈ 13.3 µM) | 
TPO: recombinant human thrombopoietin obtained from R&D Systems, Inc. | significant Akt activation |  |  |  |  |  |  |  |  |  |  |  |  |  |  |  |  | significant enhancement of activation of Akt
